Assay results: patent US5780472A, “Piperazine derivatives and methods for the preparation thereof and compositions containing the same” (Samjin Pharmaceuticazl Co., Ltd., priority 1995, dated 1998)
≈ marks a conversion by molar mass, not a printed value.

How the values were obtained:
[1] = system: 5 kinds of human solid cancer cell lines; assay: In vitro antitumor activity against 5 human solid cancer cell lines compared with cisplatin (SRB assay); assay type: cell-based; conditions: in words
Procedure: Antitumor activities of the compounds of present invention were tested. Antitumor activities of compounds of the present invention were tested in vitro against 5 kinds of human tumor cell lines and 2 kinds of leukemia tumor cell lines. The method of in vitro test is as follows.
B. Method of test(SRB Assay Method)
a. Human solid tumor cell lines, […](non-small lung cell), SKMEL-2(melanoma), HCT-15(colon), SKOV-3(ovarian), XF-498(CNS) were cultured at 37° C., in 5% CO2 incubater using the RPMI 1640 media containing 10% FBS, while they were transfer-cultured successively once or twice per week. Cell cultures were dissolved into the solution of 0.25% trypsin and 3 mM CDTA PBS(-) and then cells were separated from media which the cells were sticked on.
b. 5×10^3 -2×10^4 cells were added into each well of 96-well plate and cultured in 5% CO2 incubater, at 37° C., for 24 hours.
c. Each sample drugs was dissolved in a small quantity of DMSO, and diluted to concentrations prescribed in experiment with media, and then the final concentration of DMSO was controlled below 0.5%.
d. A medium of each well cultured for 24 hours as above b., was removed by aspiration. 200 μl of drug samples prepared in c. was added into each well and the wells were cultured for 48 hours. Tz(time zero) plates were collected at the point of time drugs were added.
e. After Tz plates and plates were treated with cell fixing by TCA of SRB assay method, staining of 0.4% SRB solution, washing with 1% acetic acid, OD values were measured at 520 nm, following elution of dye with 10 mM Tris solution.
e. If T≥Tz, cellular response function was calculated with 100×(T-Tz)/(C-Tz), and if T<Tz, with 100×(T-Tz)/Tz.

[2] = system: L1210 (mouse leukemia cell); assay: In vitro antitumor effects against animal leukemia cells (dye exclusion assay), L1210; assay type: cell-based; conditions: Mus musculus, L1210, 48 h, 50% cell growth inhibition, 37° C., trypan blue, read-out: ED50 (the source's name)
Procedure: L1210(mouse leukemia cell)
(§1) B. Method of Experiment(Dye Exclusion Assay)
(§2) 2) Sample drugs diluted with log dose were added into the cells, and it were cultured at 37° C., for 48 hours, in […] incubater, and then viable cell number was measured, Viable cell number was measured with dye exclusion test using trypan blue.

[3] = system: ICR mice; assay: Acute toxicity test (LD50), Litchfield-Wilcoxon method; assay type: in vivo, mouse; design: unit not given here; conditions: male ICR mice, 14 days
[4] = system: P388 (mouse lymphoid neoplasma cell); assay: In vitro antitumor effects against animal leukemia cells (dye exclusion assay), P388; assay type: cell-based; conditions: Mus musculus, P388, 48 h, 50% cell growth inhibition, 37° C., trypan blue, read-out: ED50 (the source's name)
Procedure: P388 (mouse lymphoid neoplasma cell)
as §1, §2

[5] = system: L1210 and P388 mouse cancer cells; assay: In vitro antitumor activity against L1210 and P388 compared with mitomycin C (dye exclusion assay); assay type: cell-based; conditions: in words
Procedure: as §1
1) L-1210 and P388 cells that were cultured in RPMI 1640 media containing 10% FBS were regulated as the cell concentration of 1×10^6 cells/ml.
as §2
3) The concentration of sample compounds of 50% cell growth inhibition compared with standard group was determined as IC50.

IC50 [2] [µg/mL] | IC50 [4] [µg/mL] | SMILES | antitumor activities compared with cisplatin [1] | LD50 ([3]; i.p.) | LD50 ([3]; p.o.) | antitumor activities compared with mitomycin C [5]
 |  | C#CCNc1cccnc1N1CCN(C(=O)NCc2cc(CC)c(C)nc2OC)CC1 [Example 144, 1-[(5-ethyl-2-methoxy-6-methylpyridin-3-yl)methylaminocarbonyl]-4-[(3-propargylamino)pyridin-2-yl]piperazine] | superior antitumor activities to those of cisplatin |  |  | 
 |  | COc1ccc(C)c(N2CCN(C(=O)Nc3cc(C)c(C)nc3OC)CC2)c1 [Example 121] | superior antitumor activities to those of cisplatin |  |  | 
1.4 (≈ 3.78 µM) | 1 (≈ 2.7 µM) | CCc1cc(NC(=O)N2CCN(c3cccc(O)c3)CC2)c(OC)nc1C [Example 38, 1-[(5-ethyl-2-methoxy-6-methylpyridin-3-yl)aminocarbonyl]-4-(3-hydroxyphenyl)piperazine] | superior antitumor activities to those of cisplatin |  |  | same or more excellent antitumor activities
 |  | COc1cc(OC)cc(N2CCN(C(=S)Nc3cc(C)c(C)nc3OC)CC2)c1 [Example 129, 1-[(5,6-dimethyl-2-methoxypyridin-3-yl)aminothiocarbonyl]-4-(3,5-dimethoxyphenyl)piperazine] | superior antitumor activities to those of cisplatin |  |  | 
0.5 (≈ 1.29 µM) | 0.2 (≈ 0.517 µM) | COc1ccccc1N1CCN(C(=S)Nc2cc(C)c(C)nc2OC)CC1 [Example 128] | superior antitumor activities to those of cisplatin |  |  | same or more excellent antitumor activities
1.7 (≈ 4.35 µM) | 1.6 (≈ 4.1 µM) | CCc1cc(NC(=O)N2CCN(c3cc(F)cc(F)c3)CC2)c(OC)nc1C [Example 13, 1-[(5-ethyl-2-methoxy-6-methylpyridine-3-yl)aminocarbonyl]-4-(3,5-difluorophenyl)piperazine] | superior antitumor activities to those of cisplatin |  |  | same or more excellent antitumor activities
0.3 (≈ 0.753 µM) | 0.3 (≈ 0.753 µM) | CCc1cc(NC(=O)N2CCN(c3cc(C)ccc3OC)CC2)c(OC)nc1C [Example 47, 1-[(5-ethyl-2-methoxy-6-methylpyridin-3-yl)aminocarbonyl]-4-(2-methoxy-5-methylphenyl)piperazine] | superior antitumor activities to those of cisplatin |  |  | same or more excellent antitumor activities
 |  | COc1nc(C)c(C)cc1NC(=O)N1CCN(c2cc(F)cc(F)c2)CC1 [Example 111, 1-[(5,6-dimethyl-2-methoxypyridin-3-yl)aminocarbonyl]-4-(3,5-difluorophenyl)piperazine] | superior antitumor activities to those of cisplatin |  |  | 
 |  | COc1nc(C)c(C)cc1NC(=O)N1CCN(c2cccc(Cl)c2)CC1 [Example 109, 1-[(5,6-dimethyl-2-methoxypyridin-3-yl)aminocarbonyl]-4-(3-chlorophenyl)piperazine] | superior antitumor activities to those of cisplatin | 2,000 | > 2,073 | 
2 (≈ 4.77 µM) | 1.5 (≈ 3.58 µM) | CCc1cc(NC(=O)N2CCN(c3cc(OC)ccc3Cl)CC2)c(OC)nc1C [Example 50, 1-[(5-ethyl-2-methoxy-6-methylpyridin-3-yl)aminocarbonyl]-4-(2-chloro-5-methoxyphenyl)piperazine] | superior antitumor activities to those of cisplatin |  |  | 
0.3 (≈ 0.814 µM) | 0.1 (≈ 0.271 µM) | COc1nc(C)c(C)cc1NC(=O)N1CCN(c2cc(C)cc(C)c2)CC1 [Example 120, 1-[(5,6-dimethyl-2-methoxypyridin-3-yl)aminocarbonyl]-4-(3,5-xylyl)piperazine] | superior antitumor activities to those of cisplatin |  |  | same or more excellent antitumor activities
 |  | CCc1cc(NC(=O)N2CCN(c3cccc(Cl)c3)CC2)c(NC)nc1C [Example 91] | superior antitumor activities to those of cisplatin |  |  | 
 |  | COc1nc(C)c(C)cc1NC(=O)N1CCN(c2cccc(OC(C)=O)c2)CC1 [Example 115, 1-[(5,6-dimethyl-2-methoxypyridin-3-yl)aminocarbonyl]-4-(3-acetoxyphenyl)piperazine] | superior antitumor activities to those of cisplatin |  |  | 
1.9 (≈ 4.77 µM) | 1.8 (≈ 4.52 µM) | CCc1cc(NC(=O)N2CCN(c3cc(OC)ccc3C)CC2)c(OC)nc1C [Example 48, 1-[(5-ethyl-2-methoxy-6-methylpyridin-3-yl)aminocarbonyl]-4-(5-methoxy-2-methylphenyl)piperazine] | superior antitumor activities to those of cisplatin |  |  | same or more excellent antitumor activities
 |  | CCc1cc(NC(=O)N2CCN(c3cccc(C)c3C)CC2)c(OC)nc1C [Example 28, 1-[(5-ethyl-2-methoxy-6-methylpyridin-3-yl)aminocarbonyl]-4-(2,3-dimethylphenyl)piperazine] | superior antitumor activities to those of cisplatin | > 1,800 | > 2,000 | 
 |  | CCc1cc(NC(=O)N2CCN(c3cccc(O)c3C)CC2)c(OC)nc1C [Example 55, 1-[(5-ethyl-2-methoxy-6-methylpyridin-3-yl)aminocarbonyl]-4-(3-hydroxy-2-methylphenyl)piperazine] | superior antitumor activities to those of cisplatin |  |  | 
2.2 (≈ 5.97 µM) | 2 (≈ 5.43 µM) | COc1nc(C)c(C)cc1NC(=O)N1CCN(c2cccc(C)c2C)CC1 [Example 119, 1-[(5,6-dimethyl-2-methoxypyridin-3-yl)aminocarbonyl]-4-(2,3-xylyl)piperazine] | superior antitumor activities to those of cisplatin |  |  | 
 |  | CCc1cc(NC(=S)N2CCN(c3cc(OC)cc(OC)c3)CC2)c(OC)nc1C [Example 100, 1-[(5-ethyl-2-methoxy-6-methylpyridin-3-yl)aminothiocarbonyl]-4-(3,5-dimethoxyphenyl)piperazine] | superior antitumor activities to those of cisplatin |  |  | 
 |  | COc1nc(C)c(C)cc1NC(=S)N1CCN(c2cccc(Cl)c2)CC1 [Example 126, 1-[(5,6-dimethyl-2-methoxypyridin-3-yl)aminothiocarbonyl]-4-(3-chlorophenyl) piperazine] | superior antitumor activities to those of cisplatin |  |  | 
 |  | COc1nc(C)c(C)cc1NC(=O)N1CCN(c2cccc(O)c2)CC1 [Example 113] | superior antitumor activities to those of cisplatin |  |  | 
 |  | CCc1cc(CNC(=O)N2CCN(c3ccccc3F)CC2)c(OC)nc1C [Example 61] | superior antitumor activities to those of cisplatin | > 1,687 |  | 

SMILES | IC50 [2] [µg/mL] | IC50 [4] [µg/mL] | antitumor activities compared with cisplatin [1] | LD50 ([3]; i.p.) | LD50 ([3]; p.o.) | antitumor activities compared with mitomycin C [5]
CCc1cc(NC(=S)N2CCN(c3cccc(Cl)c3)CC2)c(OC)nc1C [Example 98, 1-[(5-ethyl-2-methoxy-6-methylpyridin-3-yl)aminothiocarbonyl]-4-(3-chlorophenyl)piperazine] | 2 (≈ 4.94 µM) | 2.1 (≈ 5.19 µM) | superior antitumor activities to those of cisplatin | > 1,800 | > 2,000 | 
CCc1cc(NC(=O)N2CCN(c3cccc(OC(C)=O)c3)CC2)c(OC)nc1C [Example 41, 1-[(5-ethyl-2-methoxy-6-methylpyridin-3-yl)aminocarbonyl]-4-(3-acetoxyphenyl)piperazine] | 1.4 (≈ 3.39 µM) | 2 (≈ 4.85 µM) | superior antitumor activities to those of cisplatin |  |  | same or more excellent antitumor activities
CCc1cc(NC(=S)N2CCN(c3ccccc3OC)CC2)c(OC)nc1C [Example 97, 1-[(5-ethyl-2-methoxy-6-methylpyridin-3-yl)aminothiocarbonyl]-4-(2-methoxyphenyl)piperazine] | 2 (≈ 4.99 µM) | 1.6 (≈ 3.99 µM) | superior antitumor activities to those of cisplatin | 1,100 |  | 
